Assay [1] concerns Tyrosine-protein kinase ABL1 (Homo sapiens), P00519 [Q252H]. The experiment in a line: Inhibition of human truncated ABL Q252H mutant expressed in baculovirus assessed as substrate phosphorylation using fluorescence-labelled peptides as substrate at 2 uM after 90 mins by microfluidic peptide phosphorylation assay.
For assay [2], the target named is Fibroblast growth factor receptor 3 (Homo sapiens) (UniProt P22607). The experiment in a line: Inhibition of human FGFR3 catalytic domain expressed in baculovirus assessed as substrate phosphorylation using fluorescence-labelled peptides as substrate at 2 uM after 90 mins by microfluidic peptide phosphorylation assay.
The target of assay [3] is Protein kinase C beta type (Homo sapiens) (UniProt P05771). The following applies: 0.1 uM.
Protein kinase C beta type (Homo sapiens), sequence (P05771 2-671 limits assumed): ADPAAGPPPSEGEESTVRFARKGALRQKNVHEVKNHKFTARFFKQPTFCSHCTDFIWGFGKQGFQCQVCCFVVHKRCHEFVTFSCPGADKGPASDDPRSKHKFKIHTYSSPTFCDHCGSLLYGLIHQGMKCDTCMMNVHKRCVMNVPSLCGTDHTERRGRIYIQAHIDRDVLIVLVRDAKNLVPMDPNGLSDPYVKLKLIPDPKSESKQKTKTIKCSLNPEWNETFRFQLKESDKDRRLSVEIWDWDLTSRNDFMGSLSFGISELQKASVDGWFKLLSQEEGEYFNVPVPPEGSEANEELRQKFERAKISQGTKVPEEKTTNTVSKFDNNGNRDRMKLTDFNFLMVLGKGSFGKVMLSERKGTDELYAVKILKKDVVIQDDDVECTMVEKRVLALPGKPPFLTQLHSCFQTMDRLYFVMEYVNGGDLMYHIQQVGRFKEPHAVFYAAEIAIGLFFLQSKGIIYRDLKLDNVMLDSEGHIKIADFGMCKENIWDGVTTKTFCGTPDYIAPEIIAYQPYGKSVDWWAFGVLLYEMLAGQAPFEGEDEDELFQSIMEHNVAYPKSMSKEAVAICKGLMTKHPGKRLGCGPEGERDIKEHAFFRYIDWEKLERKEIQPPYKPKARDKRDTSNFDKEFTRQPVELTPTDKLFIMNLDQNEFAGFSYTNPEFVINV
Description: Inhibition of human full length PKC beta2 expressed in baculovirus assessed as substrate phosphorylation using fluorescence-labelled peptides as substrate at 0.1 uM after 90 mins by microfluidic peptide phosphorylation assay
The target in assay [4] is Mitogen-activated protein kinase 1 (Homo sapiens) (UniProt P28482). The settings on record: 0.1 uM.
Mitogen-activated protein kinase 1 (Homo sapiens), sequence (P28482 whole entry, the tested form may be a part): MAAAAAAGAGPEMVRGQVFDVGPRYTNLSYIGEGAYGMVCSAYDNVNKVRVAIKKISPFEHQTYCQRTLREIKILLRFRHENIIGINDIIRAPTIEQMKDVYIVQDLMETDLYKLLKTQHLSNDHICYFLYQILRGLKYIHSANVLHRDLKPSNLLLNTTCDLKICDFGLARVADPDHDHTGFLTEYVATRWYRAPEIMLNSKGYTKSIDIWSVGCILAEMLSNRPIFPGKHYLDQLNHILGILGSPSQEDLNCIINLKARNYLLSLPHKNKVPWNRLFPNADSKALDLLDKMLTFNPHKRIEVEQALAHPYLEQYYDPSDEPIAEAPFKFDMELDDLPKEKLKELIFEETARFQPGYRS
Description: Inhibition of human full length ERK2 expressed in Escherichia coli cell assessed as substrate phosphorylation using fluorescence-labelled peptides as substrate at 0.1 uM after 90 mins by microfluidic peptide phosphorylation assay
Assay [5] relates to Tyrosine-protein kinase ABL1 (Homo sapiens), P00519 [T315I]. Description: Inhibition of human truncated ABL T315I mutant expressed in baculovirus assessed as substrate phosphorylation using fluorescence-labelled peptides as substrate at 0.2 uM after 90 mins by microfluidic peptide phosphorylation assay.
Assay [6] deals with Serine/threonine-protein kinase Chk2 (Homo sapiens) (UniProt O96017). Description: Inhibition of human full length CHK2 expressed in baculovirus assessed as substrate phosphorylation using fluorescence-labelled peptides as substrate at 0.2 uM after 90 mins by microfluidic peptide phosphorylation assay.
Serine/threonine-protein kinase Chk2 (Homo sapiens), sequence (O96017 whole entry): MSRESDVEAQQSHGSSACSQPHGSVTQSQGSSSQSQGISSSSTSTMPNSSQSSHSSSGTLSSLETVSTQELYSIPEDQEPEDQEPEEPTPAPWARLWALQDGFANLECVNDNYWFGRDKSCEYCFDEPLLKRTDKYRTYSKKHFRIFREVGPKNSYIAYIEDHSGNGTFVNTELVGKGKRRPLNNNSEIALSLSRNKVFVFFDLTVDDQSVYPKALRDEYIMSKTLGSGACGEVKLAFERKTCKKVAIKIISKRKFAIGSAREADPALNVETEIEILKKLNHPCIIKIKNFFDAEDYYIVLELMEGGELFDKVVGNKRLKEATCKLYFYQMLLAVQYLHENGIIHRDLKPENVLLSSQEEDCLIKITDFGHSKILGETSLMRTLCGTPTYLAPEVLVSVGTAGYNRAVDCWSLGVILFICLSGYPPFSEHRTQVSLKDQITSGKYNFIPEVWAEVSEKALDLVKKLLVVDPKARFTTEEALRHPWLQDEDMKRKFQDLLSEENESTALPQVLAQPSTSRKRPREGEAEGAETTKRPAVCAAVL
The target in assay [7] is Mitogen-activated protein kinase 1 (Homo sapiens) (UniProt P28482). Description: Inhibition of human full length ERK2 expressed in Escherichia coli cell assessed as substrate phosphorylation using fluorescence-labelled peptides as substrate at 0.06 uM after 90 mins by microfluidic peptide phosphorylation assay.
Assay [8] deals with Glycogen synthase kinase-3 beta (Homo sapiens) (UniProt P49841). Description: Inhibition of human full length GSK-3 beta expressed in baculovirus assessed as substrate phosphorylation using fluorescence-labelled peptides as substrate at 95 uM after 90 mins by microfluidic peptide phosphorylation assay.
Glycogen synthase kinase-3 beta (Homo sapiens), sequence (P49841 whole entry, looked up, the tested form may be a part): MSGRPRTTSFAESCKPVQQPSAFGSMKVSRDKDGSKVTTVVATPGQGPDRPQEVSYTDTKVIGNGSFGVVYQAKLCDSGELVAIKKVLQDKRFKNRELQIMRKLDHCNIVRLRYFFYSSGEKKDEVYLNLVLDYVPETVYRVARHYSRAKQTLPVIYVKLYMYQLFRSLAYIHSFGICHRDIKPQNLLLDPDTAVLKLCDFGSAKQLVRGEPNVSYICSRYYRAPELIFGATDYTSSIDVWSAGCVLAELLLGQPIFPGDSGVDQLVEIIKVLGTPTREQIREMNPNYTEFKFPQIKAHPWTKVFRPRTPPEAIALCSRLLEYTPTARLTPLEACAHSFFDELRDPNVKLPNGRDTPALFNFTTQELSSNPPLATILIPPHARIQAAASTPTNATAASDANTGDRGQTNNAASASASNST
Assay [9] addresses Insulin receptor (Homo sapiens) (UniProt P06213). Description: Inhibition of human INSR catalytic domain expressed in baculovirus assessed as substrate phosphorylation using fluorescence-labelled peptides as substrate at 95 uM after 90 mins by microfluidic peptide phosphorylation assay.
The target in assay [10] is Tyrosine-protein kinase ABL1 (Homo sapiens) (UniProt P00519). The experiment in a line: Inhibition of human full-length ABL expressed in baculovirus assessed as substrate phosphorylation using fluorescence-labelled peptides as substrate at 8 uM after 90 mins by microfluidic peptide phosphorylation assay.
For assay [11], the target named is Serine/threonine-protein kinase MARK1 (Homo sapiens) (UniProt Q9P0L2). Description: Inhibition of human full length MARK1 expressed in baculovirus assessed as substrate phosphorylation using fluorescence-labelled peptides as substrate at 70 uM after 90 mins by microfluidic peptide phosphorylation assay.
Serine/threonine-protein kinase MARK1 (Homo sapiens), sequence (Q9P0L2 whole entry, looked up, the tested form may be a part): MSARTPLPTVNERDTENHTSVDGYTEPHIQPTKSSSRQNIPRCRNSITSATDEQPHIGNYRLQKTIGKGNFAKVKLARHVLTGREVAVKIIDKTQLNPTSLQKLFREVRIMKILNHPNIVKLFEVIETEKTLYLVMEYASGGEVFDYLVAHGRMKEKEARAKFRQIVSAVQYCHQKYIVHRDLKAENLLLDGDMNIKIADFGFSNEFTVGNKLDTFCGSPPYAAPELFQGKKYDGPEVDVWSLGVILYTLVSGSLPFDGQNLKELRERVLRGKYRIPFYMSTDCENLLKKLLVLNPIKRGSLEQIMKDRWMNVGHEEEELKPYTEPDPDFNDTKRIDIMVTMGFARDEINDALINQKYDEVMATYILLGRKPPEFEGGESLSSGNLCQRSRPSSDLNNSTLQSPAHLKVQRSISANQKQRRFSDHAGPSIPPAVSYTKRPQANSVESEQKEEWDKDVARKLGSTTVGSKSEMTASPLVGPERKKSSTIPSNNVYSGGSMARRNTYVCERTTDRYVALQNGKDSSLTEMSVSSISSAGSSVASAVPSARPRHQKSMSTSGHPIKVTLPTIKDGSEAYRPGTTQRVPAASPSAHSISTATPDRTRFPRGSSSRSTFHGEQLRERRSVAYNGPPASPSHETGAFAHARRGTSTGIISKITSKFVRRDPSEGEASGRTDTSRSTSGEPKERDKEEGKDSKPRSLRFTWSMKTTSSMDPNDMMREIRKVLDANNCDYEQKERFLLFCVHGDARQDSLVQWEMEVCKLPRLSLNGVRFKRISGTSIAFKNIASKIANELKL
Assay [12] deals with Rho-associated protein kinase 2 (Homo sapiens) (UniProt O75116). Description: Inhibition of human ROCK2 catalytic domain expressed in baculovirus assessed as substrate phosphorylation using fluorescence-labelled peptides as substrate at 70 uM after 90 mins by microfluidic peptide phosphorylation assay.
The target of assay [13] is Insulin receptor (Homo sapiens) (UniProt P06213). Description: Inhibition of human INSR catalytic domain expressed in baculovirus assessed as substrate phosphorylation using fluorescence-labelled peptides as substrate at 70 uM after 90 mins by microfluidic peptide phosphorylation assay.
The target in assay [14] is Tyrosine-protein kinase Lyn (Homo sapiens) (UniProt P07948). The experiment in a line: Inhibition of human full length LYN expressed in baculovirus assessed as substrate phosphorylation using fluorescence-labelled peptides as substrate at 70 uM after 90 mins by microfluidic peptide phosphorylation assay.
Tyrosine-protein kinase Lyn (Homo sapiens), sequence (P07948 2-512 limits assumed): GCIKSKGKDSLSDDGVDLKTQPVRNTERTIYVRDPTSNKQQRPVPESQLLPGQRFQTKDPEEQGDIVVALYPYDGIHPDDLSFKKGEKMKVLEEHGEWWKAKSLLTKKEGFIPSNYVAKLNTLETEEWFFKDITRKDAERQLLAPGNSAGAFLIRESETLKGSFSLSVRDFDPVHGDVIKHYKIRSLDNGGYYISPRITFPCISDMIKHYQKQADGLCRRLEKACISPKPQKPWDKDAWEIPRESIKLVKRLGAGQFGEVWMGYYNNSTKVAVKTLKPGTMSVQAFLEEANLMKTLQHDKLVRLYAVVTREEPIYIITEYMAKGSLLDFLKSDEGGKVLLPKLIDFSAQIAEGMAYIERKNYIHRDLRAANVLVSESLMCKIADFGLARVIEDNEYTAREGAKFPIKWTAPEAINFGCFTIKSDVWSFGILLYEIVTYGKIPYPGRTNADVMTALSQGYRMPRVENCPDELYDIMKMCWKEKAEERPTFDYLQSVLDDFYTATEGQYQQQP
Assay [15] addresses Tyrosine-protein kinase BTK (Homo sapiens) (UniProt Q06187). The experiment in a line: Inhibition of human full length BTK expressed in baculovirus assessed as substrate phosphorylation using fluorescence-labelled peptides as substrate at 70 uM after 90 mins by microfluidic peptide phosphorylation assay.
In assay [16] the target is T1, Aurora kinase C (Homo sapiens) (UniProt Q9UQB9).
T1 sequence (whole entry): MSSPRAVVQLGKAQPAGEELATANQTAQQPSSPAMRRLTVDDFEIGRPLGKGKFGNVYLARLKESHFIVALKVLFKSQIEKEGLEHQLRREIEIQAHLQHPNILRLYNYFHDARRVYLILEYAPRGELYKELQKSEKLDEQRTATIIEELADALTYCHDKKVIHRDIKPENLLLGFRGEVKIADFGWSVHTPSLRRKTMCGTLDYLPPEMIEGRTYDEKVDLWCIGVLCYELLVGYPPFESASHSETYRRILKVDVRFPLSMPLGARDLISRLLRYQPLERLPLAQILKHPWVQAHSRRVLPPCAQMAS
Description: Inhibition of human full length AurC expressed in baculovirus assessed as substrate phosphorylation using fluorescence-labelled peptides as substrate at 70 uM after 90 mins by microfluidic peptide phosphorylation assay.

In assay [17] the target is T2, Aurora kinase A (Homo sapiens) (UniProt O14965).
T2 sequence (whole entry): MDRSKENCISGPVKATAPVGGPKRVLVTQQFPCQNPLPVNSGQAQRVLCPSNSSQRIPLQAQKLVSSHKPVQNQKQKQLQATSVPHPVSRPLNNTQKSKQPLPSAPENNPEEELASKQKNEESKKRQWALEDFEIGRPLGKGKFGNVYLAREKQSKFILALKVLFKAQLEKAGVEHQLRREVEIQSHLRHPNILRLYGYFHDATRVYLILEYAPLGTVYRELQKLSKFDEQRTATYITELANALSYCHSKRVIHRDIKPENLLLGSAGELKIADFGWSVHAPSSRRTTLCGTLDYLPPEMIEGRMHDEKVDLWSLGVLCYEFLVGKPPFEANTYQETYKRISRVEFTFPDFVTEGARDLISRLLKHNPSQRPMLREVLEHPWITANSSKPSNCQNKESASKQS
Description: Inhibition of human full length AurA expressed in baculovirus assessed as substrate phosphorylation using fluorescence-labelled peptides as substrate at […] after 90 mins by microfluidic peptide phosphorylation assay.

In assay [18] the target is Ribosomal protein S6 kinase alpha-2 (Homo sapiens) (UniProt Q15349). The experiment in a line: Inhibition of human full length RSK3 expressed in baculovirus assessed as substrate phosphorylation using fluorescence-labelled peptides as substrate at 1000 uM after 90 mins by microfluidic peptide phosphorylation assay.
Ribosomal protein S6 kinase alpha-2 (Homo sapiens), sequence (Q15349 whole entry): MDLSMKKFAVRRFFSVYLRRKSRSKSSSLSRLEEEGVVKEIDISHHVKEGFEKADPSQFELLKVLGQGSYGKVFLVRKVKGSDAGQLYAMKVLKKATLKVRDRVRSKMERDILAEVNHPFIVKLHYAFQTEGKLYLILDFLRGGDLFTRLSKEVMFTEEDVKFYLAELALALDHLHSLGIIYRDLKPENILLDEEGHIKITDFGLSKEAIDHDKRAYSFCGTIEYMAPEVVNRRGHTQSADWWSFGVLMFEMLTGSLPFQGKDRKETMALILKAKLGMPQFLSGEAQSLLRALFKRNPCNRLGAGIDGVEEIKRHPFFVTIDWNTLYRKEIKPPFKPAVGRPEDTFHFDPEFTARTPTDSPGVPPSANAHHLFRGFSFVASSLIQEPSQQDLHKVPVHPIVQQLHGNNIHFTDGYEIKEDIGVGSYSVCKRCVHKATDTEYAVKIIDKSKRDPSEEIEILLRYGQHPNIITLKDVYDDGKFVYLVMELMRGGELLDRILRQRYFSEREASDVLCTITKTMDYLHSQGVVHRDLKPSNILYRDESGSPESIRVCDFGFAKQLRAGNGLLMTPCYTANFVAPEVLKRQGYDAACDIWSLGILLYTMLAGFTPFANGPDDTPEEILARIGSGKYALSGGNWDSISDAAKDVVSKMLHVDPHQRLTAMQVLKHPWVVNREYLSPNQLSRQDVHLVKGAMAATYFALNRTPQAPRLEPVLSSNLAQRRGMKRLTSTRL

The structures appear in SMILES notation.

Our source for the inhibition values is ChEMBL document CHEMBL3132769, “Fragment growing to retain or alter the selectivity of anchored kinase hinge-binding fragments” (Medchemcomm, 2014).

Broadly, the inhibition is the drop in the measured response relative to a control, in per cent.

Tyrosine-protein kinase BTK (Homo sapiens), sequence (Q06187 whole entry): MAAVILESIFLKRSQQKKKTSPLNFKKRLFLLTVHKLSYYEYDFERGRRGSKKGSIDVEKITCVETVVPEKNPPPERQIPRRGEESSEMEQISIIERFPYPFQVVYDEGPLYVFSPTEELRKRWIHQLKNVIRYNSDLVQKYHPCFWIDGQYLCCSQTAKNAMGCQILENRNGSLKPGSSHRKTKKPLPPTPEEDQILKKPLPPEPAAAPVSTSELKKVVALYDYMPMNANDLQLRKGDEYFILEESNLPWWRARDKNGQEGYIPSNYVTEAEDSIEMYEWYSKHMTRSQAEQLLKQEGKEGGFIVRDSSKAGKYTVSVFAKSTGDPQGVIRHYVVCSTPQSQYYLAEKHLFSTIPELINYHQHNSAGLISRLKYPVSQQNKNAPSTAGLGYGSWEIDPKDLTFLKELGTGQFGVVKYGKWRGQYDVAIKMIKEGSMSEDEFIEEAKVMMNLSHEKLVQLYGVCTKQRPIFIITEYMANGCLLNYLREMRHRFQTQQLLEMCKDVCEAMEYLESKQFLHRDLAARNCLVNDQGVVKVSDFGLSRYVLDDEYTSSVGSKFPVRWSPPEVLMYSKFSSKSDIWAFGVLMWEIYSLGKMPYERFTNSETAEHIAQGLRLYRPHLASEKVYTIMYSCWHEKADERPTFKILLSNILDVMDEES

With `NC1CCN(c2ncnc3[nH]ccc23)CC1`, the results for the inhibition in [1] and in assay [2] were 17% and 0%, respectively.

With `C[C@H](CN(C)C)Oc1nc(Nc2cc3cccc(Cl)c3cn2)cnc1C#N`, the inhibition in assay [3] and in assay [4] was 0% in each case.

As to `Clc1ccc(C2(c3ccc(-c4ncnc5[nH]cnc45)cc3)CCNCC2)cc1`, the inhibition was 0% in assay [5] and 59% in [6].

For `NC1(Cc2ccc(Cl)cc2)CCN(c2ncnc3[nH]ccc23)CC1`, the inhibition in [7] amounted to 4.5%.

Take `NCCc1ccc(-c2ncnc3[nH]cnc23)cc1`: the figures for the inhibition in assay [8] and in assay [9] were 55% and 23.5%, respectively.

For `NCC1CCN(c2ncnc3[nH]ccc23)CC1`, the inhibition in assay [10] was 57.5%.

For `CNCc1ccc(-c2ncnc3[nH]cnc23)cc1`, the inhibition in assay [11] is 52%; in assay [12], 88.5%; in assay [13] it was 0%; in assay [14], 35%; in assay [15], 0%; in [16], 73%.

Regarding `COC(=O)c1cnc(Nc2cnc(C#N)cn2)cc1NCC1CCNCC1`, the inhibition in assay [17] turned out to be 6.5%.

As to `c1cnc2[nH]ccc2c1`, the inhibition in [18] is 71%.
